Assay results: PubChem BioAssay (NCI)
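Where inhibition never reached the appropriate level, the endpoint shown equals the highest concentration tested. Otherwise, values were interpolated linearly from a five-concentration, 48-hour dose response in 96-well plates. At the GI50, growth is halved. TGI marks complete inhibition of growth.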

How the values were obtained:
Experiment in all cases: inhibition of tumour cell growth, NCI panel, 48 h
HCT-116 colon = test system: HCT-116 colon
BT-549 breast = test system: BT-549 breast
CAKI-1 renal = test system: CAKI-1 renal
A549 NSCLC = test system: A549 NSCLC
DU-145 prostate = test system: DU-145 prostate
NCI/ADR-RES ovarian = test system: NCI/ADR-RES ovarian
EKVX NSCLC = test system: EKVX NSCLC
NCI-H522 lung = test system: NCI-H522 lung
UACC-62 melanoma = test system: UACC-62 melanoma
MALME-3M melanoma = test system: MALME-3M melanoma

## CCCCCCCC(=O)SCC/C=C/[C@@H]1CC(=O)NCc2nc(cs2)C2=N[C@@](C)(CS2)C(=O)N[C@@H](C(C)C)C(=O)N1
HCT-116 colon
  GI50: < 0.01 µM
  TGI: 0.035 µM
BT-549 breast
  GI50: 0.0604 µM
  TGI: > 66.8 µM
CAKI-1 renal
  GI50: 2.75 µM
  TGI: 17.6 µM
A549 NSCLC
  GI50: 0.0273 µM
  TGI: 1.53 µM
DU-145 prostate
  GI50: < 0.01 µM
  TGI: > 100 µM
NCI/ADR-RES ovarian
  GI50: 26.7 µM
  TGI: > 100 µM
EKVX NSCLC
  GI50: 0.0662 µM
  TGI: > 100 µM
NCI-H522 lung
  GI50: 0.0278 µM
  TGI: 11.1 µM
UACC-62 melanoma
  GI50: < 0.01 µM
  TGI: 0.165 µM

## NCCNC(=O)c1cccc2cc3ccccc3nc12
HCT-116 colon
  TGI: 8.06 µM
MALME-3M melanoma
  TGI: 3.29 µM
CAKI-1 renal
  TGI: > 23.4 µM
A549 NSCLC
  TGI: > 100 µM
EKVX NSCLC
  TGI: 17.5 µM
NCI-H522 lung
  TGI: > 100 µM
UACC-62 melanoma
  TGI: 8.34 µM

## Cc1nc2ccccn2c1NC(=O)NNC(=S)Nc1ccc(F)cc1
HCT-116 colon
  GI50: > 100 µM
  TGI: > 100 µM
BT-549 breast
  GI50: > 100 µM
  TGI: > 100 µM
CAKI-1 renal
  GI50: > 100 µM
  TGI: > 100 µM
A549 NSCLC
  GI50: > 100 µM
  TGI: > 100 µM
DU-145 prostate
  GI50: > 100 µM
  TGI: > 100 µM
NCI/ADR-RES ovarian
  GI50: > 100 µM
  TGI: > 100 µM
EKVX NSCLC
  GI50: > 100 µM
  TGI: > 100 µM
NCI-H522 lung
  GI50: > 100 µM
  TGI: > 100 µM
UACC-62 melanoma
  GI50: > 100 µM
  TGI: > 100 µM

## Cc1ccc2nc3cc(C)c(=O)cc-3sc2c1
HCT-116 colon
  TGI: > 100 µM
MALME-3M melanoma
  TGI: > 100 µM
CAKI-1 renal
  TGI: > 100 µM
A549 NSCLC
  TGI: > 100 µM
EKVX NSCLC
  TGI: > 100 µM
NCI-H522 lung
  TGI: > 100 µM
UACC-62 melanoma
  TGI: 82.8 µM

## CCCCCC[C@@H](C)NC(=O)c1ccc(Nc2nc3ccccc3c3occc23)cc1
HCT-116 colon
  GI50: 1.92 µM
  TGI: 11.3 µM
BT-549 breast
  GI50: 2.35 µM
  TGI: 7.61 µM
CAKI-1 renal
  GI50: 2.82 µM
  TGI: 28.3 µM
A549 NSCLC
  GI50: 3.17 µM
  TGI: > 100 µM
DU-145 prostate
  GI50: 1.92 µM
  TGI: 13.2 µM
NCI/ADR-RES ovarian
  GI50: 2.53 µM
  TGI: > 100 µM
EKVX NSCLC
  GI50: 1.52 µM
  TGI: 5.04 µM
NCI-H522 lung
  GI50: 1.31 µM
  TGI: 4.54 µM
UACC-62 melanoma
  GI50: 32.8 µM
  TGI: > 100 µM

## C=C1C(=O)O[C@H]2[C@H]1CC/C(COC(=O)OC/C1=C/CC[C@@]3(C)O[C@H]3[C@H]3OC(=O)[C@@H](CN(C)C)[C@@H]3CC1)=C\CC[C@@]1(C)O[C@@H]21
HCT-116 colon
  GI50: 1.13 µM
  TGI: 2.35 µM
BT-549 breast
  GI50: 1.41 µM
  TGI: 2.8 µM
MALME-3M melanoma
  GI50: 1.26 µM
  TGI: 3.12 µM
A549 NSCLC
  GI50: 10.8 µM
  TGI: 24.3 µM
DU-145 prostate
  GI50: 1.65 µM
  TGI: 3.32 µM
NCI/ADR-RES ovarian
  GI50: 12.8 µM
  TGI: 29.7 µM
EKVX NSCLC
  GI50: 2.17 µM
  TGI: 9.39 µM
NCI-H522 lung
  GI50: 0.214 µM
  TGI: 0.513 µM
UACC-62 melanoma
  GI50: 1.85 µM
  TGI: 5.13 µM

## CC1(C)OC(=O)C(C#N)=C1C[n+]1ccccc1
MALME-3M melanoma
  TGI: > 10 µM
CAKI-1 renal
  TGI: > 10 µM
DU-145 prostate
  TGI: > 10 µM
NCI/ADR-RES ovarian
  TGI: > 10 µM
EKVX NSCLC
  TGI: > 10 µM
NCI-H522 lung
  TGI: > 10 µM
